According to patent publication US20230339854A1, “Negative Allosteric Modulation of GluN3-Containing N-Methyl-D-Aspartate Receptors” (Emory University, priority 2020, published 2023):

What follows are compounds tested against T1, human GluN1^FA,TL/GluN3A receptors (Homo sapiens, UniProt Q8TCU5) (assay: Two-electrode voltage-clamp recordings of GluN1^FA,TL/GluN3A receptors in Xenopus oocytes). Settings: hGluN1^FA,TL/hGluN3A; read-out: IC50.
T1 construct: Human GluN3A (NP_597702.2) and rat GluN3B (NP_579842.2) were synthesized and subcloned into SP6 plasmids; expressed in transfected cells; host or cells: Xenopus laevis oocytes, cRNA injection (GluN1:GluN3 1:3)
T1 sequence (Q8TCU5 24-1115, other chains not shown): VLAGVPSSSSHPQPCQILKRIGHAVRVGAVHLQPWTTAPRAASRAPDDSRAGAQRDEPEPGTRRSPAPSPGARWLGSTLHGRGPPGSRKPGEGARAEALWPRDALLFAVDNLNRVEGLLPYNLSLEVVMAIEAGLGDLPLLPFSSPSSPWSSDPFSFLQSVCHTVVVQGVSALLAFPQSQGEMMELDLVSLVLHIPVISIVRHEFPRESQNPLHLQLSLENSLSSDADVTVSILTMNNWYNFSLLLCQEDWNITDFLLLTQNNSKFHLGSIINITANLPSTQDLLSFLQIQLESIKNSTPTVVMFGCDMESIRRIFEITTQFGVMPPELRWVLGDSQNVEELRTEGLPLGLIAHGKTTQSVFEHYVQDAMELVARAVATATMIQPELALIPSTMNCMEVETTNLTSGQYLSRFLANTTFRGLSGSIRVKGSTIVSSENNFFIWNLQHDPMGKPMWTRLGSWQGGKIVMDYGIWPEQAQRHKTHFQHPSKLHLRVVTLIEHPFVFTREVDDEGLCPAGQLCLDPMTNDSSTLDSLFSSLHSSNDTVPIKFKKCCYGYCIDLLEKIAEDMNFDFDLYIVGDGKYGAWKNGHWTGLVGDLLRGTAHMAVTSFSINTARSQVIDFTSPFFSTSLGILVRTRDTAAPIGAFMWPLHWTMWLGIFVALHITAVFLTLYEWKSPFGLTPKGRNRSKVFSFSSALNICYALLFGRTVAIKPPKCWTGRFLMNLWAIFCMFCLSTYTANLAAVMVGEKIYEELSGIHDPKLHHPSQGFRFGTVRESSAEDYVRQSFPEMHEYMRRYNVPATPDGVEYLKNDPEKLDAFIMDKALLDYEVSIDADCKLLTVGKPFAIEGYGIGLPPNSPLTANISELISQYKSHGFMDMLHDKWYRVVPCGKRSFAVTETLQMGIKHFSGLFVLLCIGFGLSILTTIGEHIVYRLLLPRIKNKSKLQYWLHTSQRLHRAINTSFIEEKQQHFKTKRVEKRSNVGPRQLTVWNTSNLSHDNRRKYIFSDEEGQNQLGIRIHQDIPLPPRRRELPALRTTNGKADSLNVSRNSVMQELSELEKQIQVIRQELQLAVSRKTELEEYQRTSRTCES
Type: cell-based
Text: cDNA encoding human wild-type (WT) GluN1-1a (GenBank accession numbers NP_015566, hereafter GluN1) and rat GluN1-1a (NP_058706.1) were synthesized and subcloned into pGEMHE plasmid; some experiments used the rat splice variant GluN1-4a (NP_001257531.1). Human GluN3A (NP_597702.2) and rat GluN3B (NP_579842.2) were synthesized and subcloned into SP6 plasmids. For most experiments, human GluN1 was co-expressed with human GluN3A, except for mutagenesis experiments where rat GluN1 was co-expressed with human GluN3A. Rat GluN1-4a was always expressed with rat GluN3B.
Defolliculated Xenopus laevis oocytes (stage V-VI) were obtained from Ecocyte BioScience (Austin, Texas), or prepared from commercially available Xenopus ovaries (Xenopus 1, Dexter, MI) as previously described (Hansen, et al., Mol. Pharmacol., 2013). A Drummond Nanoject II (Broomall, PA) was used to inject oocytes with cRNAs encoding GluN1 and GluN3 at a 1:3 ratio in RNase-free water. The cRNA was diluted as needed to give responses with amplitudes ranging between 200-2000 nA (0.2-10 ng total cRNA). Following cRNA injection, the oocytes were stored at 15-19° C. in Barth's solution that contained (in mM) 88 NaCl, 2.4 NaHCO3, 1 KCl, 0.33 Ca(NO3)2, 0.41 CaCl2), 0.82 MgSO4, and 5 Tris-HCl (pH 7.4 with NaOH), supplemented with 1 μg/ml streptomycin (Invitrogen, Carlsbad, CA) and 100 μg/ml gentamicin (Fisher Scientific, Pittsburgh, PA). Recordings were performed 2-5 days following cRNA microinjection at room temperature (23° C.) using a two-electrode voltage-clamp amplifier (OC725, Warner Instrument, Hamilton, CT). The signal was low-pass filtered at 10-20 Hz (4-pole, −3 dB Bessel) and digitized at the Nyquist rate using PCI-6025E or USB-6212 BNC data acquisition boards (National Instruments, Austin, TX) using EasyOocyte (http://www.easyoocyte.io/). Oocytes were placed in a custom-made chamber and continuously perfused (2.5 ml/min) with oocyte recording solution containing (in mM) 90 NaCl, 1 KCl, 10 HEPES, 0.5-1.0 BaCl2, and 0.01 EDTA (pH 7.4 with NaOH). Solutions were applied by gravity, and solution exchange was controlled through a rotary valve (Hamilton, Reno, NV). Recording electrodes were filled with 0.3-3.0 M KCl, and current responses were recorded at a holding potential of −40 mV.
Response (%)=(100−minimum)/(1+([concentration]/IC50)^nH)+minimum (2) • where nH is the Hill slope, IC50 is the concentration that produces a half-maximal effect, and minimum is the degree of residual inhibition at a saturating concentration of the negative allosteric modulator.
The afore-referenced compounds were screened in the same assay as EU1180-438 to determine their effects on hGluN1^FA,TL/hGluN3A receptors. Selected compounds that inhibited by more than 20% at the concentration at which they were initially evaluated (either 10 or 30 μM) were analyzed further, and a dose-response curve was generated to determine their IC50 values.

| IC50 [µM] | Compound |
| --- | --- |
| 15.7 | CCOc1ccc(OCC(c2ccc(OC(C)C)cc2)N2Cc3ccc(F)cc3C2=O)cc1 (stereo not shown) [EU1180-590, 6-fluoro-2-(2-(4-ethoxyphenoxy)-1-(4-isopropoxyphenyl)ethyl)isoindolin-1-one] |
| 63 | COc1cc(F)c(C(COc2cccc(C)n2)N2Cc3ccc(Cl)cc3C2=O)c(F)c1 (stereo not shown) [EU1180-611, 6-Chloro-2-(1-(2,6-difluoro-4-methoxyphenyl)-2-((6-methylpyridin-2-yl)oxy)ethyl)isoindolin-1-one] |

Same assay, conditions: read-out: hGluN1^FA,TL/hGluN3A (100 × Idrug/Icontrol at 30 μM drug)

| Compound | remaining activity at 30 µM [%] |
| --- | --- |
| CCOc1ccc(OCC(c2ccc(OC(C)C)cc2)N2Cc3cc(Cl)ccc3C2=O)cc1 (stereo not shown) [EU1180-589, 5-chloro-2-(2-(4-ethoxyphenoxy)-1-(4-isopropoxyphenyl)ethyl)isoindolin-1-one] | 87 |
| CCOc1ccc(OCC(c2ccc(OC(C)C)cc2)N2Cc3ccc(F)cc3C2=O)cc1 (stereo not shown) [EU1180-590, 6-fluoro-2-(2-(4-ethoxyphenoxy)-1-(4-isopropoxyphenyl)ethyl)isoindolin-1-one] | 35 |
| CCOc1ccc(OCC(c2ccc(OC(C)C)cc2)N2Cc3cc(F)ccc3C2=O)cc1 (stereo not shown) [EU1180-591, 5-fluoro-2-(2-(4-ethoxyphenoxy)-1-(4-isopropoxyphenyl)ethyl)isoindolin-1-one] | 90 |
| CCOc1ccc(OCC(c2ccc(OC(C)C)cc2)N2Cc3ccc(Br)cc3C2=O)cc1 (stereo not shown) [EU1180-592, 6-bromo-2-(2-(4-ethoxyphenoxy)-1-(4-isopropoxyphenyl)ethyl)isoindolin-1-one] | 78 |
| COc1ccc(C(COc2cccc(C)n2)N2Cc3ccc(C(F)(F)F)cc3C2=O)cc1 (stereo not shown) [EU1180-593, 2-(1-(4-Methoxyphenyl)-2-((6-methylpyridin-2-yl)oxy)ethyl)-6-(trifluoromethyl)isoindolin-1-one] | 83 |
| COc1ccc(C(COc2cccc(C)n2)N2Cc3cc(Cl)ccc3C2=O)cc1 (stereo not shown) [EU1180-594, 5-Chloro-2-(1-(4-methoxyphenyl)-2-((6-methylpyridin-2-yl)oxy)ethyl)isoindolin-1-one] | 73 |
| COc1ccc(C(COc2cccc(C)n2)N2Cc3ccc(Cl)cc3C2=O)cc1 (stereo not shown) [EU1180-595, 6-Chloro-2-(1-(4-methoxyphenyl)-2-((6-methylpyridin-2-yl)oxy)ethyl)isoindolin-1-one] | 75 |
| COc1ccc(C(COc2cccc(C)n2)N2Cc3cc(Br)ccc3C2=O)cc1 (stereo not shown) [EU1180-596, 5-Bromo-2-(1-(4-methoxyphenyl)-2-((6-methylpyridin-2-yl)oxy)ethyl)isoindolin-1-one] | 92 |
| COc1ccc(C(COc2cccc(C)n2)N2Cc3ccc(Br)cc3C2=O)cc1 (stereo not shown) [EU1180-597, 6-Bromo-2-(1-(4-methoxyphenyl)-2-((6-methylpyridin-2-yl)oxy)ethyl)isoindolin-1-one] | 69 |
| COc1ccc(C(COc2cccc(C)n2)N2Cc3cc(F)ccc3C2=O)cc1 (stereo not shown) [EU1180-598, 5-Fluoro-2-(1-(4-methoxyphenyl)-2-((6-methylpyridin-2-yl)oxy)ethyl)isoindolin-1-one] | 89 |
| COc1ccc(C(COc2cccc(C)n2)N2Cc3ccc(F)cc3C2=O)cc1 (stereo not shown) [EU1180-599, 6-Fluoro-2-(1-(4-methoxyphenyl)-2-((6-methylpyridin-2-yl)oxy)ethyl)isoindolin-1-one] | 57 |
| COc1ccc(C(COc2cccc(C)n2)N2Cc3ccccc3C2=O)c(F)c1 (stereo not shown) [EU1180-600, 2-(1-(2-Fluoro-4-methoxyphenyl)-2-((6-methylpyridin-2-yl)oxy)ethyl)isoindolin-1-one] | 87 |

Now from value to compound:

| remaining activity at 30 µM [%] | Compound |
| --- | --- |
| 79 | COc1ccc(C(COc2cccc(C)n2)N2Cc3cc(F)ccc3C2=O)c(F)c1 (stereo not shown) [EU1180-601, 5-Fluoro-2-(1-(2-fluoro-4-methoxyphenyl)-2-((6-methylpyridin-2-yl)oxy)ethyl)isoindolin-1-one] |
| 73 | COc1ccc(C(COc2cccc(C)n2)N2Cc3ccc(F)cc3C2=O)c(F)c1 (stereo not shown) [EU1180-602, 6-Fluoro-2-(1-(2-fluoro-4-methoxyphenyl)-2-((6-methylpyridin-2-yl)oxy)ethyl)isoindolin-1-one] |
| 84 | COc1ccc(C(COc2cccc(C)n2)N2Cc3ccc(C(F)(F)F)cc3C2=O)c(F)c1 (stereo not shown) [EU1180-603, 2-(1-(2-Fluoro-4-methoxyphenyl)-2-((6-methylpyridin-2-yl)oxy)ethyl)-6-(trifluoromethyl)isoindolin-1-one] |
| 81 | COc1ccc(C(COc2cccc(C)n2)N2Cc3cc(Cl)ccc3C2=O)c(F)c1 (stereo not shown) [EU1180-604, 5-Chloro-2-(1-(2-fluoro-4-methoxyphenyl)-2-((6-methylpyridin-2-yl)oxy)ethyl)isoindolin-1-one] |
| 69 | COc1ccc(C(COc2cccc(C)n2)N2Cc3ccc(Cl)cc3C2=O)c(F)c1 (stereo not shown) [EU1180-605, 6-Chloro-2-(1-(2-fluoro-4-methoxyphenyl)-2-((6-methylpyridin-2-yl)oxy)ethyl)isoindolin-1-one] |
| 66 | COc1ccc(C(COc2cccc(C)n2)N2Cc3cc(Br)ccc3C2=O)c(F)c1 (stereo not shown) [EU1180-606, 5-Bromo-2-(1-(2-fluoro-4-methoxyphenyl)-2-((6-methylpyridin-2-yl)oxy)ethyl)isoindolin-1-on] |
| 62 | COc1ccc(C(COc2cccc(C)n2)N2Cc3ccc(Br)cc3C2=O)c(F)c1 (stereo not shown) [EU1180-607, 6-Bromo-2-(1-(2-fluoro-4-methoxyphenyl)-2-((6-methylpyridin-2-yl)oxy)ethyl)isoindolin-1-one] |
| 70 | COc1cc(F)c(C(COc2cccc(C)n2)N2Cc3ccccc3C2=O)c(F)c1 (stereo not shown) [EU1180-608, 2-(1-(2,6-Difluoro-4-methoxyphenyl)-2-((6-methylpyridin-2-yl)oxy)ethyl)isoindolin-1-one] |
| 81 | COc1cc(F)c(C(COc2cccc(C)n2)N2Cc3ccc(C(F)(F)F)cc3C2=O)c(F)c1 (stereo not shown) [EU1180-609, 2-(1-(2,6-Difluoro-4-methoxyphenyl)-2-((6-methylpyridin-2-yl)oxy)ethyl)-6-(trifluoromethyl)isoindolin-1-one] |
| 76 | COc1cc(F)c(C(COc2cccc(C)n2)N2Cc3cc(Cl)ccc3C2=O)c(F)c1 (stereo not shown) [EU1180-610, 5-Chloro-2-(1-(2,6-difluoro-4-methoxyphenyl)-2-((6-methylpyridin-2-yl)oxy)ethyl)isoindolin-1-one] |
| 57 | COc1cc(F)c(C(COc2cccc(C)n2)N2Cc3ccc(Cl)cc3C2=O)c(F)c1 (stereo not shown) [EU1180-611, 6-Chloro-2-(1-(2,6-difluoro-4-methoxyphenyl)-2-((6-methylpyridin-2-yl)oxy)ethyl)isoindolin-1-one] |
| 79 | COc1cc(F)c(C(COc2cccc(C)n2)N2Cc3cc(Br)ccc3C2=O)c(F)c1 (stereo not shown) [EU1180-612, 5-Bromo-2-(1-(2,6-difluoro-4-methoxyphenyl)-2-((6-methylpyridin-2-yl)oxy)ethyl)isoindolin-1-one] |
| 89 | COc1cc(F)c(C(COc2cccc(C)n2)N2Cc3cc(F)ccc3C2=O)c(F)c1 (stereo not shown) [EU1180-613, 2-(1-(2,6-Difluoro-4-methoxyphenyl)-2-((6-methylpyridin-2-yl)oxy)ethyl)-5-fluoroisoindolin-1-one] |
| 57 | COc1cc(F)c(C(COc2cccc(C)n2)N2Cc3ccc(F)cc3C2=O)c(F)c1 (stereo not shown) [EU1180-614, 2-(1-(2,6-Difluoro-4-methoxyphenyl)-2-((6-methylpyridin-2-yl)oxy)ethyl)-6-fluoroisoindolin-1-one] |
